This assay addresses T1, Phospholipase D1 (Homo sapiens, UniProt Q13393).
T1 sequence (Q13393 whole entry): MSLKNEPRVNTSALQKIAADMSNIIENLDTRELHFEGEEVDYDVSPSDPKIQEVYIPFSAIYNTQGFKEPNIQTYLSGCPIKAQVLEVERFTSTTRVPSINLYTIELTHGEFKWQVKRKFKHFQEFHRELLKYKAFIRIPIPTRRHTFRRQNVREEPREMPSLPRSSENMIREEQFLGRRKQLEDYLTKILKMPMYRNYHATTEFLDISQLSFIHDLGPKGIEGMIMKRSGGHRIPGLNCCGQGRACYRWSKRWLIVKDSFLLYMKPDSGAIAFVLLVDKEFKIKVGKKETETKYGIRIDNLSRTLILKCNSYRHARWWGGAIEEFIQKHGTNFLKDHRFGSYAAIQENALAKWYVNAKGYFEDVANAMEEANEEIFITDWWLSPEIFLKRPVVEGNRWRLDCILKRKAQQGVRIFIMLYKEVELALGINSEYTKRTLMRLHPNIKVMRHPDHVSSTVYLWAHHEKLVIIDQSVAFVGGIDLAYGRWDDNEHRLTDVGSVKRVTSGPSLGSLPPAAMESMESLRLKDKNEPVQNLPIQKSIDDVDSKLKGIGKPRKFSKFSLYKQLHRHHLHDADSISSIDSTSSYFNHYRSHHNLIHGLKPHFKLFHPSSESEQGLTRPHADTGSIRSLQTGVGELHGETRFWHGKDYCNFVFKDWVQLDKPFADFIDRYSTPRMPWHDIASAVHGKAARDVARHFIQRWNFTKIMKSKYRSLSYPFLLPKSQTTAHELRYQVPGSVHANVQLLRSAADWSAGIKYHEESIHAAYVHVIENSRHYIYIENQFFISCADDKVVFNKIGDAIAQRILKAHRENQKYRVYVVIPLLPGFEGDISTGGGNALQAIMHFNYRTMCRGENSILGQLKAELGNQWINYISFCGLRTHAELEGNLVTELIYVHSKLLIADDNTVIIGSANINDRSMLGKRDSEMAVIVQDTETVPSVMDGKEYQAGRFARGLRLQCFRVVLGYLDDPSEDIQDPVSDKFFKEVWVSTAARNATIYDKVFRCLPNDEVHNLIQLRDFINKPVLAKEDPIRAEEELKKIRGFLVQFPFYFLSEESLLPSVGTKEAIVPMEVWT
The assay is described as follows: Inhibition Assay: In one aspect, the compound inhibits PLD activity; that is, a compound can inhibit PLD1 activity and/or PLD2 activity. In a further aspect, the compound inhibits PLD1 response in Calu-1 cells. In a further aspect, the compound inhibits PLD2 response in HEK293gfpPLD2 cells. In a further aspect, the compound inhibits in vitro PLD1 response. In a further aspect, the compound …. The assay is classed as cell-based.

Here are results for one molecule from ChEMBL document CHEMBL3886234, “Isoform selective phospholipase D inhibitors” (2015).

In turn, `C[C@@H](CN1CCC2(CC1)C(=O)NC[C@@H]2c1ccc(F)cc1)NC(=O)c1ccc(F)cc1` had an IC50 of 1200 nM.

For orientation: IC50 means the concentration needed to halve the response being measured.
